From patent US20220402948A1, “EGFR INHIBITOR, COMPOSITION AND PREPARATION METHOD THEREFOR” (BETTA PHARMACEUTICALS CO., LTD., priority 2019, published 2022)

Tests used:
EGFRΔ19del/T790M/C797S = EGFRΔ19del/T790M/C797S (Homo sapiens, UniProt P00533, T790M/C797S, form not given); test: EGFR Δ19del/T790M/C797S kinase test (mobility variation analysis, Caliper EZ Reader); format: biochemical; conditions: kinase enzymatic activity, Table 1
Procedure, shortened: (§1)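 Kinase pre-incubated with compound 10 minutes at room temperature, then ATP plus peptide substrate added; substrate conversion read by mobility shift after stop solution. Percent inhibition normalized to no-compound and no-enzyme controls; IC50 from variable-slope log(inhibitor) fit.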

EGFR WT = EGFR WT (Homo sapiens, UniProt P00533); test: EGFR WT kinase test (mobility variation analysis, Caliper EZ Reader); format: biochemical; conditions: kinase enzymatic activity, Table 1
Procedure, shortened: as §1

IGF1R = IGF1R (Homo sapiens, UniProt P08069); test: IGF1R kinase test (mobility variation analysis, Caliper EZ Reader); format: biochemical; conditions: kinase enzymatic activity, Table 1; read-out: EGFR IGF1R IC50
Procedure, shortened: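 Kinase preincubated 10 min at room temperature with compound (10-point 3-fold series, top 3000 nM), then ATP and substrate added and reacted at room temperature. Substrate conversion read by mobility-shift (Caliper EZ Reader); % inhibition vs no-enzyme and no-compound controls fitted to variable-slope curve for IC50.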

[1] = target: Ba/F3 cells with EGFR Δ19del/T790M/C797S mutation gene stably overexpressed (Homo sapiens, UniProt P00533, T790M/C797S, cells depend on it, form not given); test: Ba/F3-Δ19del/T790M/C797S cell proliferation assay (CellTiter Glo, 72 hours); format: cell-based; conditions: Table 2, read-out: EGFR Δ19del/T790M/C797S IC50
Procedure, shortened: (§2)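 Ba/F3 cells stably overexpressing wild-type EGFR or EGFR Δ19del/T790M/C797S were seeded at 2000 cells/well and incubated 72 h with compound. Viability was read by CellTiter-Glo luminescence, and IC50 came from a four-parameter logistic fit of signal against log concentration.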

[2] = target: Ba/F3-EGFR wild-type cell line (Homo sapiens, UniProt P00533); test: Ba/F3-EGFR wild-type cell proliferation assay (CellTiter Glo, 72 hours); format: cell-based; conditions: Table 2, read-out: EGFR WT IC50
Procedure, shortened: as §2

A431 = A431 cell proliferation assay (CellTiter Glo, 72 hours); format: cell-based; conditions: Homo sapiens, A-431, 72 h, cell proliferation, A431, 72 hours, Table 2; read-out: A431 IC50
Procedure, shortened: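 A431 cells (2000/well) exposed 72 h to compound at 1000 nM down to 0.2 nM in 3-fold steps, 0.1% DMSO (0.5% for some series). Viability by CellTiter-Glo luminescence; IC50 by four-parameter nonlinear regression.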

EGFR WT, sequence (P00533 25-1210): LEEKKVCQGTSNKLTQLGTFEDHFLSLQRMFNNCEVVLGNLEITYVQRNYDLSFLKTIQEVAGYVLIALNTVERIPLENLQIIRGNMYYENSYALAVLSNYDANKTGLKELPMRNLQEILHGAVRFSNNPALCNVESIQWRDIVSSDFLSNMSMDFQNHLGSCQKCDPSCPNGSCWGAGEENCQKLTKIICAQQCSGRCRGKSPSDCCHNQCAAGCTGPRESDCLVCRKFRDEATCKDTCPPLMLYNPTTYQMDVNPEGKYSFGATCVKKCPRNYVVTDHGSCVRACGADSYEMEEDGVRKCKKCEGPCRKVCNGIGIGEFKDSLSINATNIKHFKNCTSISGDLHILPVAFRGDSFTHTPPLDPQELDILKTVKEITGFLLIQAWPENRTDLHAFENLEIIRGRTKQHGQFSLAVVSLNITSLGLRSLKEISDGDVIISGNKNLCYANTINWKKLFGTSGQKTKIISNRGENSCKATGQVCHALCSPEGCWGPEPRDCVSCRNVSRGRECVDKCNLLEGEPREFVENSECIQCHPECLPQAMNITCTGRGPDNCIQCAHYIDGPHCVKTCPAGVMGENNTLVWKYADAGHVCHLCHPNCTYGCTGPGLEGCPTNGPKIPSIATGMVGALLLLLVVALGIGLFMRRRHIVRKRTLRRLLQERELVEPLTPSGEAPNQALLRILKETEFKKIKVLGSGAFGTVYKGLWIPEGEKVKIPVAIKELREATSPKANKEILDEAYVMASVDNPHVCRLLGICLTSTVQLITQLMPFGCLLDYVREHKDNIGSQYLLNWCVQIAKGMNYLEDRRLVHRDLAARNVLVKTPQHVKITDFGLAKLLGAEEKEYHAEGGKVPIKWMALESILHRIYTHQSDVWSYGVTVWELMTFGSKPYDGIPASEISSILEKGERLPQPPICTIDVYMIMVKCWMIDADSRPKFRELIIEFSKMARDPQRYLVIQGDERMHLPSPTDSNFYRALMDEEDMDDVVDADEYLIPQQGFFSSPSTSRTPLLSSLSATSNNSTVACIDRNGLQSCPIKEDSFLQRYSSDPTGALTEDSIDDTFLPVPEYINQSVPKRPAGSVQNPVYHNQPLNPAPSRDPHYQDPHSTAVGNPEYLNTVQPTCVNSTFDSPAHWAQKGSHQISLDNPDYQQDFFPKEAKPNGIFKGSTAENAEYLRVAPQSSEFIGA
Ba/F3-EGFR wild-type cell line, sequence (P00533 whole entry, change not shown): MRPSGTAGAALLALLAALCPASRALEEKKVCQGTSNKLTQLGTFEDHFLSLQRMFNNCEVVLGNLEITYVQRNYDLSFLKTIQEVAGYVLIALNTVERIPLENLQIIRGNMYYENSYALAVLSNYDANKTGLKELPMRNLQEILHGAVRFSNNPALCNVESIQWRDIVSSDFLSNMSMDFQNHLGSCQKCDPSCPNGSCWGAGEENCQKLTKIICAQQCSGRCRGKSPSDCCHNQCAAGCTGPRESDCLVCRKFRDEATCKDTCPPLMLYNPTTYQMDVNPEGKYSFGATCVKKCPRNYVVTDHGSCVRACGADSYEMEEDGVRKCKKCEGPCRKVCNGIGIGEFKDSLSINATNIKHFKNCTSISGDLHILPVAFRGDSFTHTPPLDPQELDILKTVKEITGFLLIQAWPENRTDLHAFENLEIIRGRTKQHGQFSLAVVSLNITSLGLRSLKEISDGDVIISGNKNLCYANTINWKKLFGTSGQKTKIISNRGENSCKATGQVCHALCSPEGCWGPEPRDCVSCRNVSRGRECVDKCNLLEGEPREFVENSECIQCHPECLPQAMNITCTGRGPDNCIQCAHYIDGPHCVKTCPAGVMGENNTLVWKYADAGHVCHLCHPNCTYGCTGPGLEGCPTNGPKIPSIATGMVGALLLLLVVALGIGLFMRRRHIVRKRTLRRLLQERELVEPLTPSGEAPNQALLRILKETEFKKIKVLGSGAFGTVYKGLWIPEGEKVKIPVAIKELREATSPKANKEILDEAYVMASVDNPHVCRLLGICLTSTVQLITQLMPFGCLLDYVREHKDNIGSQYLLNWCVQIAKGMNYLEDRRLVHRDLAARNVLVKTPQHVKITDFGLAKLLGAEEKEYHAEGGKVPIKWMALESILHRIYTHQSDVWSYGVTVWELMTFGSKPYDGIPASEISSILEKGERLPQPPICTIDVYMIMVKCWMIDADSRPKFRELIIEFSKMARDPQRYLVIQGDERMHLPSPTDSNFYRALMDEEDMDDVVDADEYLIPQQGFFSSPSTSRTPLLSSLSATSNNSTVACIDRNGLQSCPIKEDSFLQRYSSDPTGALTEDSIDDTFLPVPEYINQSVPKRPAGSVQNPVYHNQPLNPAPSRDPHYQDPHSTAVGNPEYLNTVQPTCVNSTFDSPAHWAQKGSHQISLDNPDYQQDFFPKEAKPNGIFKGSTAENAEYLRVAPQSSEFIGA
IGF1R, sequence (P08069 31-1367, species assumed): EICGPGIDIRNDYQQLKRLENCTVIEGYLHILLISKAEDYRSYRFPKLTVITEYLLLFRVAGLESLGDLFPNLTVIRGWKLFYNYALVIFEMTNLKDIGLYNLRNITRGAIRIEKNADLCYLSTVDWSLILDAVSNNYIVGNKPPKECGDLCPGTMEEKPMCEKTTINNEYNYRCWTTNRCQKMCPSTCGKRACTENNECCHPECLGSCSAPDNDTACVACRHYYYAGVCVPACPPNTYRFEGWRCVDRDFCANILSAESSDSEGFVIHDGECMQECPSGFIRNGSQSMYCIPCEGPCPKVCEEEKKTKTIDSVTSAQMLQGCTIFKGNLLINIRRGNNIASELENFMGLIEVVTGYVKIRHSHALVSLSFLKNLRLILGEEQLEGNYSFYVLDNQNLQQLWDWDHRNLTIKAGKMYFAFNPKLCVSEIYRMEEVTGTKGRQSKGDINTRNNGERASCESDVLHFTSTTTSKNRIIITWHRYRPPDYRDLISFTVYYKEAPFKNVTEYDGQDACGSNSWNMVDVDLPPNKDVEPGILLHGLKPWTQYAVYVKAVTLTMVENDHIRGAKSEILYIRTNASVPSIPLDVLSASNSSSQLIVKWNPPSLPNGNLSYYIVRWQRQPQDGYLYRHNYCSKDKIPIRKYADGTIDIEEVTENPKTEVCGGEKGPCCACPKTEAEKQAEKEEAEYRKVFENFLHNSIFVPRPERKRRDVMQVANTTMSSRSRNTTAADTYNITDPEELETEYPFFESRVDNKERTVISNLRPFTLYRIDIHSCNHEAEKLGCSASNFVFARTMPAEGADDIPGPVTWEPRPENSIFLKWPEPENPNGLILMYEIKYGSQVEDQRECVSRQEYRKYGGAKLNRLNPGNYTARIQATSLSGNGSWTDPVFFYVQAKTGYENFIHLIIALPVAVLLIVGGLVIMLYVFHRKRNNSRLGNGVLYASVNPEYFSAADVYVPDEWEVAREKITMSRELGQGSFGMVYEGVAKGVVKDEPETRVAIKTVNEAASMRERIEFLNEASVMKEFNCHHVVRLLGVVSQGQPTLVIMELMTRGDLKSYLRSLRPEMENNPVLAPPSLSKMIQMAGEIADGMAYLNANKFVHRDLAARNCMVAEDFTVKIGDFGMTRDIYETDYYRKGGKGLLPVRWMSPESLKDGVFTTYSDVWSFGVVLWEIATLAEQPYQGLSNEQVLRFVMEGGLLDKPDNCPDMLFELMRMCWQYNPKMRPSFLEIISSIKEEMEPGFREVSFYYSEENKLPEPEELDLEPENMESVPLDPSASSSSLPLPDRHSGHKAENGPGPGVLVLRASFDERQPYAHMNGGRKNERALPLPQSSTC
EGFRΔ19del/T790M/C797S, sequence (P00533 with tags, fused parts or gaps DEL746-750/T790M/C797S, form open): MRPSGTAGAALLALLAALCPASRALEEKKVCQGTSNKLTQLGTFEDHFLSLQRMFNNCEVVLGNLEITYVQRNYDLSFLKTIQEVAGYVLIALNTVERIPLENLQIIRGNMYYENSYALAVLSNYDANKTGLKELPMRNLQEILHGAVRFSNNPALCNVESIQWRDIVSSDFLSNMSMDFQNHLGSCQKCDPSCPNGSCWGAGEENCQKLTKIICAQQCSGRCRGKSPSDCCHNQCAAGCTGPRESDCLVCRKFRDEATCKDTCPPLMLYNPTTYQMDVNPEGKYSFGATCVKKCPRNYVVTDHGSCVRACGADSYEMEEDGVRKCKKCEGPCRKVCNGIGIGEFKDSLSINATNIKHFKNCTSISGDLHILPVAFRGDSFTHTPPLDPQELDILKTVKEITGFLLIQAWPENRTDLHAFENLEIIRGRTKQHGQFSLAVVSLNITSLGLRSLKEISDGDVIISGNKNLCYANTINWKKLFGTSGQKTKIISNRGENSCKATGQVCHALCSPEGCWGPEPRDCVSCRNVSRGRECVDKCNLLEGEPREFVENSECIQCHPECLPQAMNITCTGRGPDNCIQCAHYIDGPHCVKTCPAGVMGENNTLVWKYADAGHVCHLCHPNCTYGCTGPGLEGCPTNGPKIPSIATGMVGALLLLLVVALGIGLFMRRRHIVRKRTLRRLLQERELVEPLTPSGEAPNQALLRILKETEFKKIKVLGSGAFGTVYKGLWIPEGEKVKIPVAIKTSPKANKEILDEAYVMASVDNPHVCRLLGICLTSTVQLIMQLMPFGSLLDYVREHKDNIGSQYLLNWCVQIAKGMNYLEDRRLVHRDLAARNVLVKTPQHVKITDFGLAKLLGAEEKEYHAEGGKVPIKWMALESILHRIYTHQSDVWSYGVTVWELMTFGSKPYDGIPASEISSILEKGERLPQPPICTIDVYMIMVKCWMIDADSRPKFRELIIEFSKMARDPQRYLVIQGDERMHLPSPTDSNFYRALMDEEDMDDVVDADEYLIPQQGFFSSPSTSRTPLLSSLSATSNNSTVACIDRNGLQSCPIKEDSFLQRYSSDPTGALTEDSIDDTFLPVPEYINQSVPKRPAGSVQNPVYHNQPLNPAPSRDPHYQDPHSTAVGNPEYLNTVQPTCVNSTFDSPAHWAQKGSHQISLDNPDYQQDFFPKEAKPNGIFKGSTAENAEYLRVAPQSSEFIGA

SMILES	IC50 (EGFRΔ19del/T790M/C797S)	IC50 (EGFR WT)	IC50 (IGF1R)	GI50 [1]	GI50 [2]	IC50 (A431)
COc1cc(Nc2ncc(Br)c(Nc3ccc(-c4cnccn4)cc3P(C)(C)=O)n2)c(C)cc1N1CCOCC1 [Compound K-022]	0.2 nM	31.8 nM	52.5 nM	16.5 nM	281 nM	1460 nM
COc1cnn(-c2ccc(Nc3nc(Nc4cc(OC)c(N5CCOCC5)cc4C)ncc3Br)c(P(C)(C)=O)c2)c1 [Compound K-023, (2-((5-Bromo-2-((5-methoxy-2-methyl-4-morpholinophenyl)amino)pyrimidin-4-yl)amino)-5-(4-methoxy-1H-pyrazol-1-yl)phenyl)dimethylphosphine oxide]	0.2 nM	41.5 nM	136 nM	5 nM	89.5 nM	1280 nM
COc1cc(Nc2ncc(Br)c(Nc3ccc(-c4nccs4)cc3P(C)(C)=O)n2)c(C)cc1N1CCOCC1 [Compound K-024, (2-((5-Bromo-2-((5-methoxy-2-methyl-4-morpholinophenyl)amino)pyrimidin-4-yl)amino)-5-(thiazol-2-yl)phenyl)dimethylphosphine oxide]	0.3 nM	35 nM	71.1 nM	15.6 nM	172 nM	601 nM
COc1cnn(-c2ccc(Nc3nc(Nc4cc(OC)c(N5CCN(C)CC5)cc4C)ncc3Br)c(P(C)(C)=O)c2)c1 [Compound K-028, (2-((5-Bromo-2-((5-methoxy-2-methyl-4-(4-methylpiperazin-1-yl)phenyl)amino)pyrimidin-4-yl)amino)-5-(4-methoxy-1H-pyrazol-1-yl)phenyl)-dimethylphosphine oxide]	0.1 nM	26 nM	39.1 nM	5.7 nM	226 nM	1240 nM
COc1cc(Nc2ncc(Br)c(Nc3ccc(-c4cnc(C5CC5)cn4)cc3P(C)(C)=O)n2)c(C)cc1N1CCOCC1 [Compound K-033, (2-((5-Bromo-2-((5-methoxy-2-methyl-4-morpholinophenyl)amino)pyrimidin-4-yl)amino)-5-(5-cylopropylpyrazin-2-yl)phenyl)dimethylphosphine oxide]	0.3 nM	55.6 nM	121 nM	6.4 nM	63.5 nM	1590 nM
CCOc1cc(Nc2ncc(Br)c(Nc3ccc(-c4cnn(C)n4)c(F)c3P(C)(C)=O)n2)c(C)cc1N1CCOCC1 [Compound K-034, (6-((5-Bromo-2-((5-ethoxy-2-methyl-4-morpholinophenyl)amino)pyrimidin-4-yl)amino)-2-fluoro-3-(2-methyl-2H-1,2,3-triazol-4-yl)phenyl)dimethylphosphine oxide]	0.4 nM	64.4 nM	37.1 nM	20.9 nM	219 nM	1230 nM
COc1cc(Nc2ncc(Br)c(Nc3ccc(-c4cnn(C)n4)c(F)c3P(C)(C)=O)n2)c(C)cc1N1CC(C)OC(C)C1 (stereo not drawn) [Compound K-037, (6-((5-Bromo-2-((4-(2,6-dimethylmorpholine)-5-methoxy-2-methylphenyl)amino)pyrimidin-4-yl)amino)-2-fluoro-3-(2-methyl-2H-1,2,3-triazol-4-yl)phenyl)dimethylphosphine oxide]	0.8 nM	125 nM	251 nM	10.9 nM	374 nM	7530 nM

The remaining molecules from weak to strong by IC50 (EGFRΔ19del/T790M/C797S), led by results:

IC50 (EGFRΔ19del/T790M/C797S)	IC50 (EGFR WT)	IC50 (IGF1R)	GI50 [1]	GI50 [2]	IC50 (A431)	SMILES
0.6 nM	188 nM	413 nM	17.3 nM	946 nM	> 10000 nM	COc1cnn(-c2ccc(Nc3nc(Nc4cc(OC)c(N5CCOCC5)cc4C4CC4)ncc3Br)c(P(C)(C)=O)c2)c1 [Compound K-026, (2-((5-Bromo-2-((2-cyclopropyl-5-methoxy-4-morpholinophenyl)amino)pyrimidin-4-yl)amino)-5-(4-methoxy-1H-pyrazol-1-yl)phenyl)dimethylphosphine oxide]
0.6 nM	50.2 nM	364 nM	12.9 nM	453 nM	4050 nM	COc1cc(N2CCOCC2)c(C#N)cc1Nc1ncc(Br)c(Nc2ccc(-c3nccs3)cc2P(C)(C)=O)n1 [Compound K-027, 5-((5-Bromo-4-((2-(dimethylphosphineoxide)-4-(thiazol-2-yl)phenyl)amino)pyrimidin-2-yl)amino)-4-methoxy-2-morpholinobenzonitrile]
0.3 nM	8.4 nM	21.6 nM	2.3 nM	84 nM	3870 nM	COc1cc(Nc2ncc(Br)c(Nc3ccc(-c4cnn(C)n4)cc3P(C)(C)=O)n2)c(C)cc1N1CCC(N2CCOCC2)CC1 [Compound K-021, (2-((5-Bromo-2-((5-methoxy-2-methyl-4-(4-morpholinopiperidin-1-yl)phenyl)amino)pyrimidin-4-yl)amino)-5-(2-methyl-2H-1,2,3-triazol-4-yl)phenyl)dimethylphosphine oxide]
0.3 nM	60.6 nM	91 nM	15.2 nM	52.1 nM	3180 nM	COc1cc(N2CCN(C)CC2)c(C)cc1Nc1ncc(Br)c(Nc2ccc(-c3nccs3)cc2P(C)(C)=O)n1 [Compound K-029, (2-((5-Bromo-2-((2-methoxy-5-methyl-4-(4-methylpiperazin-1-yl)phenyl)amino)pyrimidin-4-yl)amino)-5-(thiazol-2-yl)phenyl)dimethylphosphine oxide]
0.3 nM	55.2 nM	106 nM	4.8 nM	128 nM	1340 nM	COc1cc(Nc2ncc(Br)c(Nc3ccc(-c4ccc(C)cn4)cc3P(C)(C)=O)n2)c(C)cc1N1CCOCC1 [Compound K-032, (2-((5-Bromo-2-((5-methoxy-2-methyl-4-morpholinophenyl)amino)pyrimidin-4-yl)amino)-5-(5-methylpyridin-2-yl)phenyl)dimethylphosphine oxide]
0.3 nM	42.8 nM	48.7 nM	18.6 nM	146 nM	1680 nM	CCOc1cc(Nc2ncc(Br)c(Nc3ccc(-c4ccc(C)cn4)cc3P(C)(C)=O)n2)c(C)cc1N1CCOCC1 [Compound K-035, (2-((5-Bromo-2-((5-ethoxy-2-methyl-4-morpholinophenyl)amino)pyrimidin-4-yl)amino)-5-(5-methylpyridin-2-yl)phenyl)dimethylphosphine oxide]
0.23 nM	39 nM	69 nM	12.6 nM	220 nM	> 10000 nM	COc1cc(Nc2ncc(Br)c(Nc3ccc(-c4cnn(C)n4)c(F)c3P(C)(C)=O)n2)c(C)cc1N1CCOCC1 [Compound K-025, (6-((5-Bromo-2-((5-methoxy-2-methyl-4-morpholinophenyl)amino)pyrimidin-4-yl)amino)-2-fluoro-3-(2-methyl-2H-1,2,3-triazol-4-yl)phenyl)dimethylphosphine oxide]
0.2 nM	7.8 nM	21.5 nM	3.6 nM	132 nM	615 nM	COc1cc(Nc2ncc(Br)c(Nc3ccc(-c4cnn(C)c4)cc3P(C)(C)=O)n2)c(C)cc1N1CCOCC1 [Compound K-030, (2-((5-Bromo-2-((5-methoxy-2-methyl-4-morpholinophenyl)amino)pyrimidin-4-yl)amino)-5-(1-methyl-1H-pyrazol-4-yl)phenyl)dimethylphosphine oxide]
0.2 nM	19.2 nM	56.1 nM	15.4 nM	114 nM	1040 nM	COc1cnn(-c2ccc(Nc3nc(Nc4cc(OC)c(N5CCC(N(C)C)CC5)cc4C)ncc3Br)c(P(C)(C)=O)c2)c1 [Compound K-038, (2-((5-Bromo-2-((4-(4-(dimethylamino)piperidin-1-yl)-5-methoxy-2-methylphenyl)amino)pyrimidine-4-yl)amino)-5-(4-methoxy-1H-pyrazol-1-yl)phenyl)dimethylphosphine oxide]
0.1 nM	14.3 nM	45.6 nM	27.5 nM	523 nM	> 10000 nM	COc1cnn(-c2ccc(Nc3nc(Nc4cc(OC)c(N5CCC(O)CC5)cc4C)ncc3Br)c(P(C)(C)=O)c2)c1 [Compound K-039, (2-((5-Bromo-2-((4-(4-hydroxypiperidin-1-yl)-5-methoxy-2-methylphenyl)amino)pyrimidin-4-yl)amino)-5-(4-methoxy-1H-pyrazol-1-yl)phenyl)dimethylphosphine oxide]
